Measurements: patent publication US20040167217A1, “Neuroprotective effects of polyphenolic compounds” (priority 2003, published 2004)
Entries after “also recorded” stand apart in the source; their conditions may differ.

Experiments:
cerebellar granule cells [1] = experiment: Oligonucleosome formation (cell death detection ELISA), serum deprivation; format: cell-based, rat; conditions: for apoptosis (oligonucleosome formation) induced by the absence of FCS: curcumin 1, 5, 10, 25 and 50 μM
Procedure: (§1) Primary cultures of cortical neurons and cerebellar granule cells were prepared. In brief, cortical neurons were prepared from fetal brain from 17-day pregnant rat and cerebellar granule cells from 8-day old rats. Brain tissues were dissociated through trypsinization in 0.025% trypsin solution and trituration. Dissociated cells were collected through centrifugation and resuspended in standard medium containing: basal Eagle's medium containing 10% fetal bovine serum (FCS), 2 mM glutamine, genatmycin 0.05 mg/ml, and 25 mM KCI. Cells were plated at a density of 1.8×10^6 onto 35-mm dishes coated with 10 micrograms/ml ply-L-lysine.
(§2) To induce programmed cell death in […] granule cells, two different experimental well-established paradigms: serum deprivation and low K^+, were performed. In particular, neurons were cultured after their plating in serum free medium containing 25 mM KCI or in standard medium for 6 days and then agitating them in a medium containing 10% FCS and 5 mM KCI. In both of these paradigms, control cells were grown in medium containing 10% FCS and 25 mM KCI.
(§3) To induce apoptosis in cortical neurons, β-amyloid peptide (1-40), a molecule related to the pathogenesis of Alzheimer disease and a well known inducer of apoptosis was added.

cerebellar granule cells [2] = experiment: Oligonucleosome formation (cell death detection ELISA), low K+; format: cell-based, rat; conditions: for apoptosis (oligonucleosome formation) induced by low extracellular K+: curcumin 1, 5, 10, 25 and 50 μM
Procedure: as §1, §2, §3

cortical neurons [3] = experiment: Oligonucleosome formation in cortical neurons exposed to β-amyloid peptide (1-40); format: cell-based, rat; conditions: for apoptosis (oligonucleosome formation) induced by β-amyloid peptide (1-40): 20 μM β-amyloid peptide (1-40), parallel treatment
Procedure: as §1
(§4) An inhibitor of HO-1 activity may be used to determine whether or not the effects of the polyphenolic compounds or analogs thereof are induced through the heme oxygenase signaling pathway. To understand the relevance of the induction of the stress protein HO-1 on the neuroprotective effects afforded by curcumin we treated cortical neuron exposed to β-amyloid with curcumin ([…]) alone or in the presence of tinprotoporphirine IX (SnPP) 40 μM, a specific inhibitor of HO-1 activity. The same treatment was performed in cortical neurons exposed to GOX-induced cellular damage.

cortical neurons [4] = experiment: Glucose oxidase (GOX)-mediated cellular injury, Alamar blue cell viability; format: cell-based, rat
Procedure: To better assess the neuroprotective activity of curcumin, cell viability was determined for cortical neurons treated with 25 μM curcumin for 12 h followed by incubation for 2 h in the presence of glucose oxidase (100 mU/ml). This oxidant system generates hydrogen peroxide at a constant rate and is known to promote cellular injury in vitro^14. After treatment with glucose oxidase, cells were washed and exposed to complete medium containing 1% Alamar blue for 5 h according to manufacturers' instruction (Serotec, UK), in order to assess cell viability. After the 2 h incubation period, optical density in the medium of each well was measured using a plate reader (Molecular Devices; Crawley, UK). The assay is based on detection of metabolic activity of living cells using a redox indicator, which changes from oxidized (blue) to reduced (red) form. The intensity of the red color is proportional to the viability of cells, which is calculated as a difference in absorbance between 570 nm and 600 nm and expressed as a percentage of control. […] However, exposure of cells for 24 h to curcumin 25 μM reduced glucose oxidase-mediated damage and restored cell viability to 70% of control.
as §4

HO-1 = HO-1 protein expression, Western blot, cortical neurons; format: cell-based, rat
Procedure: HO-1 and hsp70 protein levels were assessed by Western immunoblot technique using a polyclonal rabbit anti-HO-1 antibody (Stressgen; Victoria, Canada), and a polyclonal rabbit hsp70 antibody. Briefly, an equal amount of proteins (30 μg) for each sample was separated by SDS-polyacrylamide gel electrophoresis and transferred to nitrocellulose membranes, and the non-specific antibodies were blocked with 3% non-fat dried milk in PBS. Membranes were then probed with a polyclonal rabbit anti HO-1 antibody (Stressgen) (1:1000 dilution in Tris-buffered saline, pH 7,4) or with a monoclonal rabbit anti-Hsp72 antibody (Amersham Pharmacia Biotechnology) (1:1000 dilution in Tris-buffered saline, pH 7,4), that recognizes only the Hsp 70 inducible isoform. Blots were then visualized using an amplified alkaline phosphate kit from Sigma.

[5] = system: Type 1 astrocytes (DI TNC1); experiment: Cell viability of astrocytes, Alamar Blue; format: cell-based; conditions: 24 h; for cytotoxic action in the presence of NAC: 1 mM NAC, curcumin 100 μM, CAPE 50 μM and 100 μM; for cell viability and cell morphology: concentration not exceeding 30 μM
Procedure: Type 1 astrocytes (DI TNC1) were purchased from the American Type Culture Collection (Manassas, VA) and cultured in Dulbecco's modified Eagle's medium containing 4.5 g/l glucose, 2 mM glutamine, 100 units/ ml penicillin, and 0.1 mg/ml streptomycin and supplemented with 10% fetal bovine serum. Cells were grown in 75-cm^2 flasks and maintained at 37° C. in a humidified atmosphere of air and 5% CO2. Confluent cells were exposed to various concentrations of curcumin, CAPE, or Curcumin-95. After each treatment (6 or 24 h), cells were harvested for the determination of heme oxygenase activity, HO-1 protein expression, and intracellular glutathione. Astrocytes growing in 24 wells were exposed to polyphenolic compounds, and cell viability was determined at 24 h. Astrocytes were exposed to curcumin or CAPE for the indicated times, and cell viability was assessed with the use of an Alamar Blue assay according to manufacturer's instructions (Serotec; Oxford, UK) as reported previously^11. At the end of each treatment, cells were washed twice and incubated for an additional 5 h in complete medium containing 1% Alamar Blue solution. Optical density in each sample was measured using a plate reader (Molecular Devices; Crawley, UK). The intensity of the color developed in the medium is proportional to the viability of cells, which is calculated as the difference in absorbance between 570 and 600 nm and expressed as percentage of control.

In the case of `COc1cc(C=CC(=O)CC(=O)C=Cc2ccc(O)c(OC)c2)ccc1O` [curcumin, 1,7-bis[4-Hydroxy-3-methoxyphenyl]-1,6-heptadiene-3,5-dione], the “concentration with strongest / most effective anti-apoptotic effect” value (cerebellar granule cells [1]) is reported as 25 µM, the “apoptosis (oligonucleosome formation) induced by the absence of FCS” value (cerebellar granule cells [1]) is reported as “significantly reduced apoptosis” and the “concentration with strongest / most effective anti-apoptotic effect” value (cerebellar granule cells [2]) is reported as 25 µM. For the same molecule, the “apoptosis (oligonucleosome formation) induced by low extracellular K+” value (cerebellar granule cells [2]) was “significantly reduced apoptosis”, the “apoptosis (oligonucleosome formation) induced by β-amyloid peptide (1-40)” value (cortical neurons [3]) was “able to overcome much of the cellular damage caused by β-amyloid; also recorded: dramatically protect the cells against apoptosis” and the “apoptosis induced by β-amyloid in the presence of HO-1 inhibitor SnPP” value (cortical neurons [3]; curcumin plus SnPP 40 μM) was “only able to partially reduce the apoptotic effects”. The “cell viability after glucose oxidase” value (cortical neurons [4]; 25 μM, then glucose oxidase 100 mU/ml for 2 h) was 70 % of control, the “cell viability, GOX-induced cellular damage (in words)” value (cortical neurons [4]; curcumin alone) was “able to overcome the apoptotic effects of GOX alone” and the “cell viability, GOX-induced cellular damage in the presence of SnPP” value (cortical neurons [4]; curcumin plus SnPP 40 μM) was “only partially in combination with SnPP”. For the same molecule, the “HO-1 protein expression / HO-1 induction” value (HO-1) was “directly correlated with HO-1 protein levels”, the “reduction in cell viability” value ([5]; 50 μM) was 20% and the “reduction in cell viability” value ([5]; 100 μM) was 63%. For the same molecule, the “cytotoxic action in the presence of NAC” value [5] was “significantly attenuated the cytotoxic action” and the “cell viability and cell morphology” value [5] was “fully preserved”.

For `O=C(/C=C/c1ccc(O)c(O)c1)OCCc1ccccc1` [CAPE, Caffeic acid phenethyl ester], the “concentration with strongest / most effective anti-apoptotic effect” value (cerebellar granule cells [1]) was 25 µM, the “apoptosis (oligonucleosome formation) induced by the absence of FCS” value (cerebellar granule cells [1]) was “strong dose-dependent anti-apoptotic effect” and the “concentration with strongest / most effective anti-apoptotic effect” value (cerebellar granule cells [2]) was 25 µM. For the same molecule, the “apoptosis (oligonucleosome formation) induced by low extracellular K+” value (cerebellar granule cells [2]) was “strong dose-dependent anti-apoptotic effect”, the “apoptosis (oligonucleosome formation) induced by β-amyloid peptide (1-40)” value (cortical neurons [3]) was “strong dose-dependent anti-apoptotic effect” and the “concentration most effective in protecting from apoptosis” value (cortical neurons [3]; β-amyloid) was 25 µM. The “HO-1 protein expression / HO-1 induction” value (HO-1) was “strongly induce HO-1”, the “reduction in cell viability” value ([5]; 50 μM) was 61% and the “reduction in cell viability” value ([5]; 100 μM) was 78%. For the same molecule, the “cytotoxic action in the presence of NAC” value [5] was “significantly attenuated the cytotoxic action” and the “cell viability and cell morphology” value [5] was “fully preserved”.
